{
  "source": "patent US10617735B2",
  "about": "“Methods and compositions for preserving retinal ganglion cells” (Massachusetts Eye and Ear Infirmary, priority 2010, dated 2020)",
  "key": {"[1]": {"system": "ROS", "assay": "Protein carbonyl contents in retina after ON injury (ELISA)", "type": "in vivo, mouse", "settings": "one day after ON injury; compared with vehicle group", "description": "It has been reported that RIP kinases control ROS generation during programmed necrosis (Cho et. al., (2009) CELL 137:1112-1123, Zhang et al., (2009) SCIENCE 325:332-336)). To investigate whether ROS play a roll in oxidative retinal damage after ON injury, protein level of carbonyl contents was analyzed using ELISA using the OxiSelect™ Protein Carbonyl ELISA Kit (Cell Biolabs, San Diego, Calif.).\nTo investigate the role of autophagy in RGC death after ON injury, we examined the effect of 3-methyladenine (3-MA) on RGCs death after ON injury. 3-MA inhibits autophagosome formation (Seglen and Gordon, (1982) PROC NATL ACAD SCI USA 79:1889-1892)). One day after ON injury, TUNEL assay was performed. […] In addition, the number of Brn3b positive cells and IPL thickness were also analyzed. […] To investigate whether ROS play a role in oxidative retinal damage after ON injury, protein level of carbonyl contents was analyzed using an ELISA kit (Cell Biolabs, San Diego, Calif.) according to the manufacturer's instructions. One day after ON injury, carbonyl contents decreased in the 3-MA treated group compared with untreated control (FIG. 10F)."}, "[2]": {"system": "retinal ganglion cell axons", "assay": "Optic nerve crush model: axon regeneration (βIII-tubulin staining of longitudinal optic nerve sections)", "type": "in vivo, mouse", "settings": "14 days, intravitreal ZVAD 300 μM and/or Nec-1 4 mM", "description": "Mice were subjected to optic nerve crush surgery. Specifically, animals were anesthetized with an intraperitoneal injection of ketamine (60-80 mg/kg: Phoenix Pharmaceutical, St. Joseph, Mo.) and xylazine (10-15 mg/kg: Bayer, Shawnee Mission, K A). Animals were positioned in a stereotaxic apparatus and a 1-1.5 cm incision was made in the skin above the right orbit. Under microscopic illumination, the lachrymal glands and extraocular muscles were resected to expose 3-4 mm of the optic nerve. The epineurium was slit open along the long axis, and the nerve was crushed 2 mm behind the eye with angled jeweler's forceps (Dumont #5) for 10 seconds, avoiding injury to the ophthalmic artery. Nerve injury was verified by the appearance of a clearing at the crush site, while the vascular integrity of the retina was evaluated by fundoscopic examination. Cases in which the vascular integrity of the retina was in question were excluded from the study. […]\nAxon regeneration was assessed by obtaining longitudinal sections of the optic nerve and counting the number of axons at pre-specified distances from the injury site. […] Axons were counted manually in at least eight longitudinal sections per case at pre-specified distances from the injury site. The number of regenerating axons at various distances are determined as described previously (Leon et al., (2000) J NEUROSCI 20:4615-4626). […]"}},
  "note": "Where a SMILES comes first, the peptide text is derived from it. The star is where a group is joined. Cbz = O=C(OCc1ccccc1)*; CH2F = FC*",
  "data": [
    {"compound": "COC(=O)CC(NC(=O)C(C)NC(=O)C(NC(=O)OCc1ccccc1)C(C)C)C(=O)CF", "note": "(stereo not drawn) [Z-VAD, Benzyloxycarbonyl-Val-Ala-Asp(OMe)-fluoromethylketone] (Cbz-Val-Ala-Asp(OMe)-CH2F; configuration not given here)", "values": [
      {"measurement": "carbonyl contents (protein level, ELISA)", "setting": "[1]", "value": "dramatically increased"},
      {"measurement": "axon regeneration (βIII-tubulin axon staining beyond injury site)", "setting": "[2]", "value": "minimal effects on axon regeneration"}
    ]}
  ]
}
